According to ChEMBL document CHEMBL4732091, “Design, synthesis and biological evaluation of novel thiosemicarbazone-indole derivatives targeting prostate cancer cells” (Eur J Med Chem, 2021):
pIC50: −log10 of the molar value.

How the values were obtained:
[1] = test system: ECa-109 cell line; experiment: Antiproliferative activity against human ECa-109 cell line cells assessed as inhibition of cell proliferation measured after 72 hrs by MTT assay; type: functional, cell-based; settings: ECa-109, 72 h
[2] = Cytotoxicity against human WPMY-1 cell line cells assessed as inhibition of cell proliferation measured after 72 hrs by MTT assay; type: cell-based; settings: WPMY-1, 72 h
[3] = test system: MGC-803; experiment: Antiproliferative activity against human MGC-803 cell line cells assessed as inhibition of cell proliferation measured after 72 hrs by MTT assay; type: functional, cell-based; settings: MGC-803, 72 h
[4] = test system: PC-3; experiment: Antiproliferative activity against human PC-3 cells assessed as inhibition of cell proliferation measured after 72 hrs by MTT assay; type: functional, cell-based; settings: PC-3, 72 h
[5] = test system: DU-145; experiment: Antiproliferative activity against human DU-145 cell line cells assessed as inhibition of cell proliferation measured after 72 hrs by MTT assay; type: functional, cell-based; settings: DU-145, 72 h
[6] = test system: MCF7; experiment: Antiproliferative activity against human MCF7 cell line cells assessed as inhibition of cell proliferation measured after 72 hrs by MTT assay; type: functional, cell-based; settings: MCF7, 72 h

Compound	pIC50 [3]	pIC50 [4]	pIC50 [5]	pIC50 [6]	pIC50 [1]	pIC50 [2]
Cc1[nH]c2ccccc2c1CCNC(=O)c1ccc(C(=O)NO)cc1	< 4.70	< 4.70	< 4.70	< 4.70	< 4.70	< 4.70
Cc1[nH]c2ccccc2c1CCNC(=O)c1ccc(NC(=S)N/N=C/c2ccc(C(=O)O)cn2)cc1	< 4.70	5.80	5.25	< 4.70	4.78	5.49
Cc1[nH]c2ccccc2c1CCNC(=O)c1ccc(NC(=S)N/N=C/c2ccc(O)cn2)cc1	< 4.70	5.82	4.77	< 4.70	4.79	< 4.70
COc1ccc(/C=N/NC(=S)Nc2ccc(C(=O)NCCc3c(C)[nH]c4ccccc34)cc2)nc1	5.20	7.08	5.39	5.20	5.26	< 4.70
Cc1ccc(/C=N/NC(=S)Nc2ccc(C(=O)NCCc3c[nH]c4ccccc34)cc2)nc1	5.15	6.62	5.84	5.15	5.40	4.90
COc1ccc2[nH]cc(CCNC(=O)c3ccc(NC(=S)N/N=C/c4ccc(C)cn4)cc3)c2c1	4.98	7.21	5.49	5.27	5.24	4.74
COc1ccc2[nH]cc(CCNC(=O)c3ccc(NC(=S)N/N=C(\C)c4ccccn4)cc3)c2c1	5.40	6.02	5.23	5.27	5.19	5.35
Cc1ccc(/C=N/NC(=S)NC2CCC(C(=O)NCCc3c[nH]c4ccccc34)CC2)nc1 (stereo unspecified)	5.34	5.65	5.65	5.09	4.85	5.81
Cc1[nH]c2ccccc2c1CCNC(=O)c1ccc(NC(=S)N/N=C/c2ccccn2)cc1	5.06	7.04	5.44	4.99	5.46	4.88
Cc1ncc(CO)c(/C=N/NC(=O)c2ccc(C(=O)NCCc3c(C)[nH]c4ccccc34)cc2)c1O	< 4.70	< 4.70	< 4.70	< 4.70	< 4.70	< 4.70
COc1ccc2[nH]cc(CCNC(=O)c3ccc(NC(=S)N/N=C/c4ccc(O)cn4)cc3)c2c1	< 4.70	5.60	4.82	< 4.70	< 4.70	< 4.70
CN(C(=S)NN=C(c1ccccn1)c1ccccn1)C1CCCCC1	–	–	–	–	–	6.15
COc1ccc(/C=N/NC(=S)Nc2ccc(C(=O)NCCc3c[nH]c4ccc(OC)cc34)cc2)nc1	5.05	7.03	5.37	5.71	5.04	< 4.70
NC(=S)N/N=C/c1ncccc1N [TRIAPINE]	–	–	–	–	–	5.30
Cc1ccc(/C=N/NC(=S)Nc2ccc(C(=O)NCCc3c[nH]c4ccccc34)cn2)nc1	5.12	6.29	5.21	5.08	4.90	5.60
C/C(=N\NC(=S)Nc1ccc(C(=O)NCCc2c(C)[nH]c3ccccc23)cc1)c1ccccn1	5.20	6.15	5.40	5.19	5.22	5.45

More lines, main results first:

pIC50 [3]	pIC50 [4]	pIC50 [5]	pIC50 [6]	Compound	pIC50 [1]	pIC50 [2]
4.95	6.34	5.28	4.99	Cc1[nH]c2ccccc2c1CCNC(=O)c1ccc(NC(=S)N/N=C/c2ccc(Cl)cn2)cc1	4.84	5.75
< 4.70	4.77	4.73	< 4.70	Cc1[nH]c2ccccc2c1CCNC(=O)c1ccc(NC(=S)N/N=C2/C(=O)Nc3ccccc32)cc1	< 4.70	< 4.70
5.37	6.39	5.69	6.06	C/C(=N\Nc1ccc(C(=O)NCCc2c(C)[nH]c3ccccc23)cn1)c1ccccn1	6.18	6.35
5.31	5.85	5.92	5.06	Cc1ccc(/C=N/NC(=S)NCc2ccc(C(=O)NCCc3c[nH]c4ccccc34)cc2)nc1	4.73	5.96
5.25	6.22	5.50	5.04	Cc1ccc(/C=N/NC(=S)NCCc2c[nH]c3ccccc23)nc1	5.35	5.63
5.27	6.88	5.38	5.19	COc1ccc2[nH]cc(CCNC(=O)c3ccc(NC(=S)N/N=C/c4ccccn4)cc3)c2c1	5.30	4.91
5.51	7.09	5.97	5.40	Cc1ccc(/C=N/NC(=S)Nc2ccc(C(=O)NCCc3c[nH]c4ccc(C)cc34)cc2)nc1	5.79	4.96
5.57	6.92	6.03	5.14	Cc1ccc(/C=N/NC(=S)Nc2ccc(C(=O)NCCc3c[nH]c4ccc(Cl)cc34)cc2)nc1	5.62	5.15
< 4.70	6.49	5.72	< 4.70	Cc1[nH]c2ccccc2c1CCNC(=O)c1ccc(NC(=S)N/N=C/c2ccc(Br)cn2)cc1	4.86	5.75
< 4.70	5.27	4.84	< 4.70	Cc1[nH]c2ccccc2c1CCNC(=O)c1ccc(NC(=S)N/N=C/c2ccccc2O)cc1	5.02	5.54
